Holding throughout (assay type): in vivo, human
For data set [1], the system named is FPG, HbA1c, insulin and HOMA-IR. The data set is described as follows: Diabetes parameters (FPG, HbA1c, insulin, HOMA-IR) in patients with diabetes mellitus-2 (Example 2). As to conditions: 4 g/day. As for the experimental part:
(§1) The effect of >96% E-EPA on lipid and inflammatory parameters was evaluated in patients with fasting triglyceride levels ≧150 mg/dl and <499 mg/dl on concomitant statin therapy. Patients with diabetes mellitus-2 were randomized and treated with either 2 g/day >96% E-EPA, 4 g/day >96%, or placebo for twelve weeks. At the end of the treatment period, several diabetes efficacy endpoints were evaluated including, TG, LDL-C, non-HDL-C, VLDL-C, Lp-PLA2, Apo B, TC, HDL-C, VLDL-TG, hs-CRP, oxLDL, and RLP-C.

The test system of the next data set is Lp-PLA2. Nature of the data set: MARINE study, Lp-PLA2. The following applies: MARINE ITT; 2 g/day; week 12. The source says: (§2) Parameters (a)-(y) can be measured in accordance with any clinically acceptable methodology. For example, triglycerides, total cholesterol, HDL-C and fasting blood sugar can be sample from serum and analyzed using standard photometry techniques. VLDL-TG, LDL-C and VLDL-C can be calculated or determined using serum lipoprotein fractionation by preparative ultracentrifugation and subsequent quantitative analysis by refractometry or by analytic ultracentrifugal methodology. Apo A1, Apo B and hsCRP can be determined from serum using standard nephelometry techniques. Lipoprotein (a) can be determined from serum using standard turbidimetric immunoassay techniques. LDL particle number and particle size can be determined using nuclear magnetic resonance (NMR) spectrometry. Remnants lipoproteins and LDL-phospholipase A2 can be determined from EDTA plasma or serum and serum, respectively, using enzymatic immunoseparation techniques. Oxidized LDL, intercellular adhesion molecule-1 and interleukin-2 levels can be determined from serum using standard enzyme immunoassay techniques. These techniques are described in detail in standard textbooks, for example Tietz Fundamentals of Clinical Chemistry, 6th Ed. (Burtis, Ashwood and Borter Eds.), WB Saunders Company. […]

In data set [2] the test system is TG, LDL-C, non-HDL-C, VLDL-C, Lp-PLA2, Apo B, TC, HDL-C, VLDL-TG, hs-CRP, oxLDL, RLP-C. The data set is described as follows: Lipid and inflammatory parameters in statin-treated patients with diabetes mellitus-2, all endpoints (Example 2). The following applies: for Each evaluated endpoint (TG, LDL-C, non-HDL-C, VLDL-C, Lp-PLA2, Apo B, TC, HDL-C, VLDL-TG, hs-CRP, oxLDL, RLP-C), adjusted for placebo: twelve weeks, diabetes mellitus-2, FIG. 1.
From the text: (§3) Parameters (a)-(y) can be measured in accordance with any clinically acceptable methodology. For example, triglycerides, total cholesterol, HDL-C and fasting blood sugar can be sample from serum and analyzed using standard photometry techniques. VLDL-TG, LDL-C and VLDL-C can be calculated or determined using serum lipoprotein fractionation by preparative ultracentrifugation and subsequent quantitative analysis by refractometry or by analytic ultracentrifugal methodology. Apo A1, Apo B and hsCRP can be determined from serum using standard nephelometry techniques. Lipoprotein (a) can be determined from serum using standard turbidimetric immunoassay techniques. LDL particle number and particle size can be determined using nuclear magnetic resonance (NMR) spectrometry. Remnants lipoproteins and LDL-phospholipase A2 can be determined from EDTA plasma or serum and serum, respectively, using enzymatic immunoseparation techniques. Oxidized LDL, intercellular adhesion molecule-1 and interleukin-2 levels can be determined from serum using standard enzyme immunoassay techniques. These techniques are described in detail in standard textbooks, for example Tietz Fundamentals of Clinical Chemistry, 6th Ed. (Burtis, Ashwood and Borter Eds.), WB Saunders Company.
as §1

Another data set has as its system ICAM-1. Nature of the data set: ANCHOR study (fasting TG ≧200 and <500 mg/dl despite statin), ICAM-1. As to conditions: ANCHOR ITT, week 12.
From the text: as §3
A multi-center, placebo-controlled, randomized, double-blind, 12-week study was performed to evaluate the efficacy and safety of >96% E-EPA in patients with fasting triglyceride levels ≧200 mg/dl and <500 mg/dl despite statin therapy (the mean of two qualifying entry values needed to be ≧185 mg/dl and at least one of the values needs to be ≧200 mg/dl). The primary objective of the study was to determine the efficacy of >96% E-EPA 2 g daily and 4 g daily, compared to placebo, in lowering fasting TG levels in patients with high risk for cardiovascular disease and with fasting TG levels ≧200 mg/dL and <500 mg/dL, despite treatment to LDL-C goal on statin therapy. […]

In the next data set the test system is Ox-LDL. The data set is described as follows: MARINE study, oxidized LDL. As to conditions: MARINE ITT, week 12.
From the text: as §2

The structures appear in SMILES notation.

As to `CC/C=C\C/C=C\C/C=C\C/C=C\C/C=C\CCCC(=O)OCC` [AMR101, all-cis eicosa-5,8,11,14,17-pentaenoic acid ethyl ester], the Glycemic control result in data set [1] (twelve weeks) is recorded as “did not worsen glycemic control”. Also, the “Changes in diabetes parameters including FPG, HbA1c, insulin and HOMA-IR” value in data set [1] (well-controlled, less-controlled and all diabetic subjects, FIG. 4) is “no statistically significant changes”. Moreover, the “Lp-PLA2 change from baseline (median)” value in the data set on Lp-PLA2 is listed as −5.1%. The “Each evaluated endpoint (TG, LDL-C, non-HDL-C, VLDL-C, Lp-PLA2, Apo B, TC, HDL-C, VLDL-TG, hs-CRP, oxLDL, RLP-C), adjusted for placebo” value in data set [2] (2 g/day) and in data set [2] (4 g/day) was “showed a decrease” throughout. In data set [2] (4 g/day, Table 7 and FIG. 3), the “Placebo-adjusted effects on non-HDL-C, VLDL-C, Apo B, TC, VLDL-TG, hsCRP and oxLDL, less-controlled versus well-controlled subjects” value is listed as “more pronounced effects were observed in less-controlled diabetics”. The “ICAM-1 change from baseline (median)” value in the data set on ICAM-1 (2 g/day) is recorded as 0.5%; in the data set on ICAM-1 (4 g/day), 0.8%. For the same compound, the “ICAM-1 end-of-treatment value (median)” value in the data set with ICAM-1 (4 g/day) stood at 270.0 ng/mL. Further, the “Ox-LDL change from baseline (median)” value is 0.4% in the data set with Ox-LDL (2 g/day) and −3.0% in the data set on Ox-LDL (4 g/day).

Source of the values: patent US9827219B2, “Compositions and methods for lowering levels of high-sensitivity C-reactive protein (HS-CRP) in a subject” (priority 2012, dated 2017).
